{"source": "patent US20080194567A1", "about": "“Combination Treatment for Enhancing Diuresis” (priority 2005, published 2008)", "type_in_all_cases": "in vivo, human", "key": {"[1]": {"test": "Experiment 2: case report, levosimendan infusion added to vasodilators and diuretics in a person with dyspnea and lung oedema", "description": "Person was admitted to hospital due to severely worsened dyspnea. They suffered from coronary artery disease with no possibilities for re-vascularisation. They had ejection fraction below 35%, markedly elevated end-diastolic pressure and moderate mitral regurgitation. […] They were treated with positive pressure ventilation, vasodilators and diuretics for three days without positive response. Levosimendan fusion with a bolus and continuous infusion rate up to 0.2 microg/kg/min was added. The infusion lasted 24 hours. Before the infusion their daily urinary volumes varied between 2150 and 2730 ml. On the day levosimendan was started their urinary volume was 2650 and increased to 3855, 2890 and 2790 ml during the next consecutive days, and their fluid balance was 8500 ml negative during the four next days after the infusion of levosimendan."}, "[2]": {"test": "Experiment 1: case report, levosimendan infusion added to diuretics in a person with congestive heart failure", "details": "for daily urine volume: 850-1850 ml before start", "text": "Person was admitted to hospital due to congestive heart failure. In cardiac echocardiography they had ejection fraction below 30%, moderate regurgitation of mitral valve and dilative cardiomyopathy. According to coronary angiography invasive procedures such as angioplasty or coronary by-pass surgery were not possible. During the first four days at hospital they received diuretics (furosemide and spironolactone) as well as lisinopril, bisoprolol, antibiotics and allopurinol without any positive response. Their dyspnea worsened and peripheral oedema increased. Levosimendan infusion was added with the dose of 0.05 microg/kg/min and was increased to 0.1 microg/kg/min after two hours, the infusion lasted 24 hours, no bolus infusion was used due to low blood pressure. During the next day patient told that they felt better and dyspnea and periphera oedema decreased. […] The daily urine volumes varied between 850 and 1850 ml before the start of levosimendan, and increased up to 6350 ml on the day they received levosimendan, and were 3800 ml on the day after levosimendan infusion, after that they went down to normal."}, "[3]": {"test": "Experiment 3: case report, levosimendan infusion added to diuretics in a person with dilating cardiomyopathy", "description": "Person was admitted to hospital due to worsened dyspnea. They suffered from idiopathic dilating cardiomyopathy and their left ventricular ejection fraction was 26%. They were treated with diuretics (furosemide and spironolactone) as well as perindopril, bisoprolol and digitalis without positive response for one week. Levosimendan infusion of 0.05 microg/kg/min was added. During the next 24 hours they urinated 3500 ml and during the next five days their weight decreased from 66.5 kg to 62.5 kg, although it had not changed at all before the infusion of levosimendan."}}}
{"smiles": "C[C@@H]1CC(=O)NN=C1c1ccc(NN=C(C#N)C#N)cc1", "note": "[levosimendan, (−)-enantiomer of [[4-(1,4,5,6-tetrahydro-4-methyl-6-oxo-3-pyridazinyl)phenyl]hydrazono]propanedinitrile]", "values": [{"measurement": "fluid balance (negative)", "setting": "[1]; during the four next days after the infusion of levosimendan", "value": 8500, "unit": "mL"}, {"measurement": "daily urinary volume", "setting": "[1]; first consecutive day after levosimendan start, 2150-2730 ml before infusion", "value": 3855, "unit": "mL"}, {"measurement": "daily urinary volume", "setting": "[1]; on the day levosimendan was started (bolus plus infusion up to 0.2 microg/kg/min, 24 h) on top of diuretics, 2150-2730 ml before infusion", "value": 2650, "unit": "mL"}, {"measurement": "daily urinary volume", "setting": "[1]; second consecutive day after levosimendan start", "value": 2890, "unit": "mL"}, {"measurement": "daily urinary volume", "setting": "[1]; third consecutive day after levosimendan start", "value": 2790, "unit": "mL"}, {"measurement": "urinary volumes (in words)", "setting": "[2]; after the levosimendan infusion was added to diuretics", "value": "increased markedly"}, {"measurement": "dyspnea and peripheral oedema", "setting": "[2]; during the next day after the levosimendan infusion was added", "value": "decreased"}, {"measurement": "daily urine volume", "setting": "[2]; on the day after levosimendan infusion", "value": 3800, "unit": "mL"}, {"measurement": "daily urine volume", "setting": "[2]; on the day they received levosimendan (0.05 then 0.1 microg/kg/min, 24 h infusion) on top of furosemide and spironolactone", "value": 6350, "unit": "mL"}, {"measurement": "body weight", "setting": "[3]; after the next five days, decreased from 66.5 kg, no change before the infusion", "value": 62.5, "unit": "kg"}, {"measurement": "urine volume", "setting": "[3]; during the next 24 hours after levosimendan 0.05 microg/kg/min was added to furosemide and spironolactone", "value": 3500, "unit": "mL"}]}
